Key:
[1] = biological target: human Cereblon WT GST-tagged protein (Homo sapiens (Human), UniProt Q96SW2); experiment: CRBN-binding affinity, HTRF (CEREBLON BINDING kit, CISBIO); settings: HTRF inhibitory activity
Outline: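 Compounds were mixed with GST-tagged human Cereblon WT protein, then with Thalidomide-Red tracer and GST Eu antibody, and binding was read by HTRF. Inhibition rate was calculated from 620 nm emission relative to blank control wells (no protein) and solvent control wells.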

IKZF1 = IKZF1 (Homo sapiens (Human), UniProt Q13422+Q96SW2); experiment: Western blot, substrate protein expression in hPBMC: IKZF1; format: cell-based; settings: hPBMC, compound 500 nM, 24 hours, Western blot
IKZF1, sequence (Q13422 whole entry): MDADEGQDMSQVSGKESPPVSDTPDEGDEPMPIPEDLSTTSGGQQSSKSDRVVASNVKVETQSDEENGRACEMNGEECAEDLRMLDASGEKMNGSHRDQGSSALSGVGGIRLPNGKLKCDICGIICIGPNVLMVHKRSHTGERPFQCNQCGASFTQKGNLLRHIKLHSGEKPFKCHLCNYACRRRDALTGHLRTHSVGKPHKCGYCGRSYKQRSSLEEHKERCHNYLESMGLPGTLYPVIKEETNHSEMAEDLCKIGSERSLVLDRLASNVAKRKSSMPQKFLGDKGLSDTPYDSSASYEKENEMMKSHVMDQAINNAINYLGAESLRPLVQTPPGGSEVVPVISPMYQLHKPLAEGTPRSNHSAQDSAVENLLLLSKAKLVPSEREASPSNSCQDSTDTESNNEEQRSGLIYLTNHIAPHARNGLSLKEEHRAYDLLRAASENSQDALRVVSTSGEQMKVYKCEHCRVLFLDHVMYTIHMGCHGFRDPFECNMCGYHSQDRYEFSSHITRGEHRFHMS
IKZF1, sequence (Q96SW2 whole entry): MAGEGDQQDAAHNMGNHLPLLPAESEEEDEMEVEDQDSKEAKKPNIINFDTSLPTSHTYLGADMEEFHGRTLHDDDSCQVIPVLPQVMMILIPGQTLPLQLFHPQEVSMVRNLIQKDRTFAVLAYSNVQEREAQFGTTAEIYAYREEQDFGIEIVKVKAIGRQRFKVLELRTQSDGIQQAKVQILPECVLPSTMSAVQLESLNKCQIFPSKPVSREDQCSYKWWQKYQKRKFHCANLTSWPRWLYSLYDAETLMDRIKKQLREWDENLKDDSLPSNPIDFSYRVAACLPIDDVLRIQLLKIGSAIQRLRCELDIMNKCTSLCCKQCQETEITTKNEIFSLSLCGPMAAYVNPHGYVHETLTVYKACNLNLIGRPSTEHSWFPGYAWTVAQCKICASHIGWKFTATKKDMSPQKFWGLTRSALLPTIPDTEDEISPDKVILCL
IKZF1, sequence (Q16531 whole entry partner): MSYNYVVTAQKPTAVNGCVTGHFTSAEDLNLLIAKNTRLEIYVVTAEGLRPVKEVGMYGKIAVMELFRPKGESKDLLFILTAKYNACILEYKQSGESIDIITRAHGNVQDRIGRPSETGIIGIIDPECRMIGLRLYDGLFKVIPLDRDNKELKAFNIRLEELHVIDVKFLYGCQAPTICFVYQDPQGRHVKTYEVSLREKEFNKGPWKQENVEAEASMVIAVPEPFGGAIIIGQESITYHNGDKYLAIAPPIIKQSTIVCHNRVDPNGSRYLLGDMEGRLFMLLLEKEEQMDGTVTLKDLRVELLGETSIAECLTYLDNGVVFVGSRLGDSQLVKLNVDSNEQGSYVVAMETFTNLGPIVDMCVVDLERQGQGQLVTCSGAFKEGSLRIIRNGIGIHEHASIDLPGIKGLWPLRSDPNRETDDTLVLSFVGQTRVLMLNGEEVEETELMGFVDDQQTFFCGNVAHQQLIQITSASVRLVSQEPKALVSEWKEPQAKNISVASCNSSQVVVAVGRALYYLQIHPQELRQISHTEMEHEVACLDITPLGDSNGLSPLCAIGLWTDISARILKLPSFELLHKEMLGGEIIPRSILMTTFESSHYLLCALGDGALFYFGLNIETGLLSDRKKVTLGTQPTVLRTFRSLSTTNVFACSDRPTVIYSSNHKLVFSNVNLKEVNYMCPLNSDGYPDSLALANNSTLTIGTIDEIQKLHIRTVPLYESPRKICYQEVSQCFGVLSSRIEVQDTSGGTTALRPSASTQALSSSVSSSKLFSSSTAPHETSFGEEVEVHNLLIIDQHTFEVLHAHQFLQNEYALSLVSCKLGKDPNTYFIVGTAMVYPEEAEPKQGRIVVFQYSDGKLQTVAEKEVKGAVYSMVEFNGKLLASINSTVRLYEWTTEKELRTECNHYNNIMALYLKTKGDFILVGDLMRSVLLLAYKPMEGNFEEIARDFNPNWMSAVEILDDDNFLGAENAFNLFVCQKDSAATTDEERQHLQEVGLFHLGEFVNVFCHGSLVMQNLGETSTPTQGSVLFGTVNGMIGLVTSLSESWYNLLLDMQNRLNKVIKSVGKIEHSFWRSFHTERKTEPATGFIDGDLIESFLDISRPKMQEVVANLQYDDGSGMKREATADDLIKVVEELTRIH
Outline: (§1)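 hPBMC, 1×10^6 cells/mL, 24 h compound exposure; RIPA lysis, BCA protein assay, SDS-PAGE, NC membrane immunoblot. Densitometry vs internal control → % protein remaining; degradation % = 100% − remaining; DC50 = conc. at 50% of DMSO band signal.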

IKZF3 = IKZF3 (Homo sapiens (Human), UniProt Q96SW2+Q9UKT9); experiment: Western blot, substrate protein expression in hPBMC: IKZF3; format: cell-based; settings: hPBMC, compound 500 nM, 24 hours, Western blot
IKZF3, sequence (Q9UKT9 whole entry): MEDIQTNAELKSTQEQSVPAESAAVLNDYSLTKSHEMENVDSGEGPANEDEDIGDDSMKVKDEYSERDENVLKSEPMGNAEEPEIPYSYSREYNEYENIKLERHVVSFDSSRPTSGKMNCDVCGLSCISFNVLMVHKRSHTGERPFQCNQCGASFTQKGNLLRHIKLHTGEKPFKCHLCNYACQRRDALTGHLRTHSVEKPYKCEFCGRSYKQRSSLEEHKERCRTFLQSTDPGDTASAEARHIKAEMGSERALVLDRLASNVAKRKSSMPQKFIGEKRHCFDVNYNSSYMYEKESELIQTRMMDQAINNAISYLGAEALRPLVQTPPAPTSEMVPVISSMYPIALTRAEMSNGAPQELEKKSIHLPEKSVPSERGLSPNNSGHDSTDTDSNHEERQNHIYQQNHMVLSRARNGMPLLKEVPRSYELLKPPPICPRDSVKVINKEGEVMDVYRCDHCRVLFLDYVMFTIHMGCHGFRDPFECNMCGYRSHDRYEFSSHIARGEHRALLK
IKZF3, sequence (Q96SW2 whole entry): as the sequence (Q96SW2 whole entry) above
IKZF3, sequence (Q16531 whole entry partner): as the sequence (Q16531 whole entry partner) above
Outline: as §1

GSPT1 = GSPT1 (Homo sapiens (Human), UniProt P15170+Q96SW2); experiment: Western blot, substrate protein expression in hPBMC: GSPT1; format: cell-based; settings: hPBMC, compound 500 nM, 24 hours, Western blot
GSPT1, sequence (P15170 whole entry): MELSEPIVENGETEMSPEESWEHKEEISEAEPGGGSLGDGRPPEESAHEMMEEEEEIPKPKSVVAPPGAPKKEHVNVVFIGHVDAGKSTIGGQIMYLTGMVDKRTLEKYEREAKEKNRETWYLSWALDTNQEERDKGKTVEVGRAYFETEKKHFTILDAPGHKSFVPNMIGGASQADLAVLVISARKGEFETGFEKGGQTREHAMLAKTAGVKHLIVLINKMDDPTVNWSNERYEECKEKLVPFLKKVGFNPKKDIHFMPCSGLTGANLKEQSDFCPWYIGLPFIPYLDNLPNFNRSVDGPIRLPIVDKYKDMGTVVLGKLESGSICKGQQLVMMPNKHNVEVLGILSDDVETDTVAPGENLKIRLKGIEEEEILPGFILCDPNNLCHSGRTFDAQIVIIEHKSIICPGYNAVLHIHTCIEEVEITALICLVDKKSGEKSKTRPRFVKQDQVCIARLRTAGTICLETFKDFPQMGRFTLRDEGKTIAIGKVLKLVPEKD
GSPT1, sequence (Q96SW2 whole entry): as the sequence (Q96SW2 whole entry) above
GSPT1, sequence (Q16531 whole entry partner): as the sequence (Q16531 whole entry partner) above
Outline: as §1

[2] = tested on: MM.1S cells (human multiple myeloma cells); experiment: Tumor cell proliferation inhibition, CCK-8; format: cell-based; settings: MM1.S, MM.1S cells, CCK-8, read-out: inhibitory activity (IC50, nM) MM.1S
Procedure: (§2) The tumor cells used herein were cultured in a cell culture medium listed in table 2 at 37° C. in an incubator with 5% CO2. Prior to experimentation, all cells used were correctly identified by STR profiling, and tested negative for mycoplasma through routine screenings.
(§3) IC50 values of the compounds of the present disclosure (including the compounds in Table 1 and the Examples 1-305 compounds) were measured using the Meilun Cell Counting Kit-8 kit from Dalian Meilun Biotech Co., Ltd. Assay details are as follows: tumor cells were seeded in a 96-well plate at a density listed in Table 5. After 24 h, 100 μL of the inoculated cells were treated with 0.5 μL of the compounds of the present disclosure (including the compounds in Table 1 and the Examples 1-305 compounds) at 10 different successively decreasing concentrations (starting at the highest concentration of 10 μM; 5-fold serial dilutions). After the cells were treated with the compounds of the present disclosure for a period of time, the cell viability detection reagent was added to the culture medium for cell viability assessment according to the instructions provided with the CCK-8 kit. […] The growth inhibition of the compounds of the present disclosure on cells was plotted by Prism Graphpad software, and the IC50 values of the compounds of the present disclosure were calculated therefrom.

[3] = tested on: H146 cells (human small cell lung carcinoma cells); experiment: Tumor cell proliferation inhibition, CCK-8; format: cell-based; settings: NCI-H146, H146 cells, CCK-8, read-out: inhibitory activity (IC50, nM) H146
Procedure: as §2, §3

human Cereblon WT GST-tagged protein, sequence (Q96SW2 whole entry): as the sequence (Q96SW2 whole entry) above

Row | SMILES | IC50 [1] | substrate protein remaining % IKZF1 (IKZF1) | substrate protein remaining % IKZF3 (IKZF3) | substrate protein remaining % GSPT1 (GSPT1) | IC50 [2] | IC50 [3]
1 | O=C1CCC(N2Cc3cc(CCN4CCN(C(c5ccccc5)c5ccccc5)CC4)ccc3C2=O)C(=O)N1 (stereo not drawn) [GT-05696, 3-(5-(2-(4-benzhydrylpiperazin-1-yl)ethyl)-1-oxoisoindolin-2-yl)piperidine-2,6-dione] | < 500 nM | A (A represents 0% ≤ substrate protein remaining % ≤ 50%) | A (A represents 0% ≤ substrate protein remaining % ≤ 50%) | A (A represents 0% ≤ substrate protein remaining % ≤ 50%) | 50 to 100 nM | –
2 | O=C1CCC(N2Cc3cc(CN4CC5CN(C(c6ccccc6)c6ccccc6)CC5C4)c(F)cc3C2=O)C(=O)N1 (stereo not drawn) [GT-06051, 3-(5-((5-benzhydrylhexahydropyrrolo[3,4-c]pyrrol-2 (1H)-yl)methyl)-6-fluoro-1-oxoisoindolin-2-yl)piperidine-2,6-dione] | 500 to 1000 nM | B (B represents substrate protein remaining % > 50%) | B (B represents substrate protein remaining % > 50%) | A (A represents 0% ≤ substrate protein remaining % ≤ 50%) | 50 to 100 nM | 100 to 500 nM
3 | O=C1CCC(N2Cc3cc(CN4CCN(C(c5ccccc5)c5ccccc5)CC4C(F)(F)F)c(F)cc3C2=O)C(=O)N1 (stereo not drawn) [GT-06097, 3-(5-((4-benzhydryl-2-(trifluoromethyl)piperazin-1-yl)methyl)-6-fluoro-1-oxoisoindolin-2-yl)piperidine-2,6-dione] | 500 to 1000 nM | B (B represents substrate protein remaining % > 50%) | B (B represents substrate protein remaining % > 50%) | A (A represents 0% ≤ substrate protein remaining % ≤ 50%) | – | –
4 | O=C1CCC(N2C(=O)c3ccc(CN4CCN(C(c5ccccc5)c5cccnc5)CC4)cc3C2=O)C(=O)N1 (stereo not drawn) [GT-06114, 2-(2,6-dioxopiperidin-3-yl)-5-((4-(phenyl(pyridin-3-yl)methyl)piperazin-1-yl)methyl) isoindoline-1,3-dione] | 1000 to 1900 nM | B (B represents substrate protein remaining % > 50%) | B (B represents substrate protein remaining % > 50%) | A (A represents 0% ≤ substrate protein remaining % ≤ 50%) | – | –
5 | O=C1CCC(N2Cc3cccc(CN4CCN(C(c5cccc(F)c5)c5cccc(F)c5)CC4)c3C2=O)C(=O)N1 (stereo not drawn) [GT-06117, 3-(7-((4-(bis(3-fluorophenyl)methyl)piperazin-1-yl)methyl)-1-oxoisoindolin-2-yl)piperidine-2,6-dione] | 500 to 1000 nM | B (B represents substrate protein remaining % > 50%) | B (B represents substrate protein remaining % > 50%) | A (A represents 0% ≤ substrate protein remaining % ≤ 50%) | – | –
6 | O=C1CCC(N2C(=O)c3ccc(C(=O)N4CCN(C(c5ccccc5F)c5ccccc5F)CC4)cc3C2=O)C(=O)N1 (stereo not drawn) [GT-06141, 5-(4-(bis(2-fluorophenyl)methyl)piperazine-1-carbonyl)-2-(2,6-dioxopiperidin-3-yl) isoindoline-1,3-dione] | 500 to 1000 nM | B (B represents substrate protein remaining % > 50%) | B (B represents substrate protein remaining % > 50%) | A (A represents 0% ≤ substrate protein remaining % ≤ 50%) | – | –
7 | O=C1CCC(N2Cc3cc(C(=O)N4CCN(C(c5ccccc5)c5cccnc5)CC4)ccc3C2=O)C(=O)N1 (stereo not drawn) [GT-06142, 3-(1-oxo-5-(4-(phenyl(pyridin-3-yl)methyl)piperazine-1-carbonyl)isoindolin-2-yl)piperidine-2,6-dione] | 500 to 1000 nM | B (B represents substrate protein remaining % > 50%) | B (B represents substrate protein remaining % > 50%) | A (A represents 0% ≤ substrate protein remaining % ≤ 50%) | – | –
8 | O=C1CCC(N2Cc3cc(C(=O)N4CCN(C(c5cccc(F)c5)c5cccc(F)c5)CC4)cc(F)c3C2=O)C(=O)N1 (stereo not drawn) [GT-06147, 3-(5-(4-(bis(3-fluorophenyl)methyl)piperazine-1-carbonyl)-7-fluoro-1-oxoisoindolin-2-yl)piperidine-2,6-dione] | < 500 nM | B (B represents substrate protein remaining % > 50%) | B (B represents substrate protein remaining % > 50%) | A (A represents 0% ≤ substrate protein remaining % ≤ 50%) | – | –
9 | O=C1CCC(N2Cc3c(C(=O)N4CCN(C(c5cccc(F)c5)c5cccc(F)c5)CC4)cccc3C2=O)C(=O)N1 (stereo not drawn) [GT-06148, 3-(4-(4-(bis(3-fluorophenyl)methyl)piperazine-1-carbonyl)-1-oxoisoindolin-2-yl)piperidine-2,6-dione] | < 500 nM | B (B represents substrate protein remaining % > 50%) | B (B represents substrate protein remaining % > 50%) | A (A represents 0% ≤ substrate protein remaining % ≤ 50%) | – | –
10 | O=C1CCC(N2Cc3cc(CN4CCN(C(c5ccc(C(F)(F)F)cc5)c5ccc(C(F)(F)F)cc5)CC4)ccc3C2=O)C(=O)N1 (stereo not drawn) [GT-06199, 3-(5-((4-(bis(4-(trifluoromethyl)phenyl)methyl)piperazin-1-yl)methyl)-1-oxoisoindolin-2-yl)piperidine-2,6-dione] | – | A (A represents 0% ≤ substrate protein remaining % ≤ 50%) | A (A represents 0% ≤ substrate protein remaining % ≤ 50%) | A (A represents 0% ≤ substrate protein remaining % ≤ 50%) | 10 to 50 nM | –
11 | O=C1CCC(N2C(=O)c3ccc(C(=O)N4CCN(C(c5cccc(F)c5)c5cccc(F)c5)CC4)cc3C2=O)C(=O)N1 (stereo not drawn) [GT-06206, 5-(4-(bis(3-fluorophenyl)methyl)piperazine-1-carbonyl)-2-(2,6-dioxopiperidin-3-yl) isoindoline-1,3-dione] | 1000 to 1900 nM | B (B represents substrate protein remaining % > 50%) | B (B represents substrate protein remaining % > 50%) | A (A represents 0% ≤ substrate protein remaining % ≤ 50%) | – | –
12 | O=C1CCC(N2Cc3cc(CN4CCN(C(c5ccccc5)c5ccc(Br)cc5)CC4)ccc3C2=O)C(=O)N1 (stereo not drawn) [GT-06640, 3-(5-((4-((4-bromophenyl) (phenyl)methyl)piperazin-1-yl)methyl)-1-oxoisoindolin-2-yl)piperidine-2,6-dione] | 500 to 1000 nM | A (A represents 0% ≤ substrate protein remaining % ≤ 50%) | A (A represents 0% ≤ substrate protein remaining % ≤ 50%) | A (A represents 0% ≤ substrate protein remaining % ≤ 50%) | – | –

Reference: patent US20250320193A1, “OXOISOINDOLINYL SUBSTITUTED PIPERIDINEDIONE DERIVATIVE AND USE THEREOF” (GLUETACS THERAPEUTICS (SHANGHAI) CO., LTD., priority 2022, published 2025)
